Among the data in PubChem BioAssay AID296 (DTP/NCI, 2004) are T/C values, retold here.

“And” between values parts separate entries of the source, which are not always exact repeats. Equal values may be shown once. Results filed as inconclusive are left out.

This experiment relates to MX-1 breast xenograft, nude mice, tumor weight T/C. Kind of experiment: NCI In Vivo Anticancer Drug Screen. Data for tumor model Human Mammary Carcinoma MX-1 Xenograft (intrarenal inoculation) in NU/NU Swiss (nude) mice. Particulars: endpoint: mean tumor weight change, higher = larger tumour. Put shortly: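 Mice carrying the implanted tumor receive either test agent or vehicle. Tumor size or survival is then recorded for both groups. Results are stated as the treated-to-control quotient.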
In general terms: A xenograft is tissue or cells of one species grown in another, often human tumour cells in immunodeficient mice.

The mark [1] stands for this setting: dose: 200.0 mg/kg/injection, schedule: Q04DX003 (sc), vehicle: saline with Tween-80.
Setting [2] is: dose: 800.0 mg/kg/injection, schedule: Q04DX003 (sc), vehicle: saline with Tween-80.
The mark [3] stands for this setting: dose: 100.0 mg/kg/injection, schedule: Q04DX003 (sc), vehicle: saline with Tween-80.
The mark [4] stands for this setting: dose: 50.0 mg/kg/injection, schedule: Q01DX010 (sc), vehicle: saline.
[5] abbreviates: dose: 100.0 mg/kg/injection, schedule: Q01DX010 (sc), vehicle: saline.
The mark [6] stands for this setting: dose: 300.0 mg/kg/injection, schedule: Q04DX003 (sc), vehicle: saline.
Setting [7] is: dose: 150.0 mg/kg/injection, schedule: Q04DX003 (sc), vehicle: saline with Tween-80.
The mark [8] stands for this setting: dose: 300.0 mg/kg/injection, schedule: Q04DX003 (sc), vehicle: saline with Tween-80.
The mark [9] stands for this setting: dose: 600.0 mg/kg/injection, schedule: Q04DX003 (sc), vehicle: saline with Tween-80.
Setting [10] is: dose: 1200.0 mg/kg/injection, schedule: Q04DX003 (sc), vehicle: saline with Tween-80.
The mark [11] stands for this setting: dose: 600.0 mg/kg/injection, schedule: Q04DX003 (sc), vehicle: Klucel (hydroxypropylcellulose) (HPC).
The mark [12] stands for this setting: dose: 2400.0 mg/kg/injection, schedule: Q04DX003 (sc), vehicle: saline with Tween-80.
Where [13] appears, read: dose: 50.0 mg/kg/injection, schedule: Q01DX010 (sc), vehicle: saline with Tween-80.
Where [14] appears, read: dose: 100.0 mg/kg/injection, schedule: Q01DX010 (sc), vehicle: saline with Tween-80.

On to `Cc1noc(N)c1N`, for which the T/C was 102 % of control (dose: 300.0 mg/kg/injection, schedule: Q04DX003 (sc), vehicle: water); 97 % of control (dose: 600.0 mg/kg/injection, schedule: Q04DX003 (sc), vehicle: water); 102 % of control (dose: 1200.0 mg/kg/injection, schedule: Q04DX003 (sc), vehicle: water); 92 % of control (dose: 2400.0 mg/kg/injection, schedule: Q04DX003 (sc), vehicle: water).
Turning to `Cc1cccc(OCC(O)CN2CC2)c1` (stereo not given), the T/C (dose: 50.0 mg/kg/injection, schedule: Q04DX003 (ip), vehicle: saline with Tween-80) is 70 % of control; the T/C (dose: 100.0 mg/kg/injection, schedule: Q04DX003 (ip), vehicle: saline with Tween-80) is 58 % of control; the T/C (dose: 200.0 mg/kg/injection, schedule: Q04DX003 (ip), vehicle: saline with Tween-80) was 43 % of control.
Consider `CC(=O)Oc1ccc[nH]c1=O`, for which the T/C by setting is: under setting [1], 111 % of control; (dose: 400.0 mg/kg/injection, schedule: Q04DX003 (sc), vehicle: saline with Tween-80) 100 % of control; under setting [2], 114 % of control.
As for `CSc1ccc2c(c1)C(N1CCN(C)CC1)Cc1ccccc1S2` (stereo not given), the T/C runs as follows: (dose: 12.5 mg/kg/injection, schedule: Q04DX003 (sc), vehicle: other) 50 % of control; (dose: 25.0 mg/kg/injection, schedule: Q04DX003 (sc), vehicle: other) 23 % of control; (dose: 100.0 mg/kg/injection, schedule: Q04DX003 (sc), vehicle: other) 42 % of control.
For `CC(=O)N(C)c1ccc(Nc2cc(C)[nH]c3ccc4ncnc4c23)cc1`, the T/C runs as follows: (dose: 50.0 mg/kg/injection, schedule: Q04DX003 (sc), vehicle: saline with Tween-80) 102 % of control; under setting [3], 84 % of control; under setting [1], 69 % of control.
Consider `O=C1C(NCC(O)CO)=C(N2CC2)C(=O)C(NCC(O)CO)=C1N1CC1` (stereo not given), for which the T/C is 76 % of control (dose: 4.0 mg/kg/injection, schedule: Q04DX003 (ip), vehicle: saline); 69 % of control (dose: 8.0 mg/kg/injection, schedule: Q04DX003 (ip), vehicle: saline); 46 % of control (dose: 16.0 mg/kg/injection, schedule: Q04DX003 (ip), vehicle: saline).
Turning to `CC1(C)OC(=O)N(CO)C1=O`, the T/C by setting is: (dose: 25.0 mg/kg/injection, schedule: Q01DX010 (sc), vehicle: saline) 45 % of control; under setting [4], 31 % of control; under setting [5], 48 % of control; (dose: 200.0 mg/kg/injection, schedule: Q01DX010 (sc), vehicle: saline) 114 % of control.
For the compound `N#Cc1cn(C2OC(CO)C(O)C2O)c2ncnc(N)c12` (stereo not given), the T/C (dose: 0.5 mg/kg/injection, schedule: Q01DX010 (sc), vehicle: saline) was 172 % of control.
Take `C1CNCOC1`: the T/C (dose: 150.0 mg/kg/injection, schedule: Q04DX003 (sc), vehicle: saline) is 100 % of control and the T/C under setting [6] is 84 % of control.
As for `CCCCCCCCCCCC(=O)NC1CC(O[C@H]2C[C@](O)(C(=O)CO)Cc3c(O)c4c(c(O)c32)C(=O)c2c(OC)cccc2C4=O)OC(C)C1O` (stereo not given in full), the T/C is 59 % of control (dose: 100.0 mg/kg/injection, schedule: Q01DX010 (sc), vehicle: water); 97 % of control (dose: 200.0 mg/kg/injection, schedule: Q01DX010 (sc), vehicle: water); 53 % of control (dose: 400.0 mg/kg/injection, schedule: Q01DX010 (sc), vehicle: water).
Take `Cc1ccc(N)c(N)c1`: the T/C by setting is: under setting [1], 87 % of control; under setting [2], 112 % of control.
Take `ClCC[Se](Cl)(Cl)c1ccccc1`: the T/C runs as follows: (dose: 12.5 mg/kg/injection, schedule: Q04DX003 (sc), vehicle: saline) 89 % of control; (dose: 25.0 mg/kg/injection, schedule: Q04DX003 (sc), vehicle: saline) 109 % of control; (dose: 50.0 mg/kg/injection, schedule: Q04DX003 (sc), vehicle: saline) 80 % of control; (dose: 100.0 mg/kg/injection, schedule: Q04DX003 (sc), vehicle: saline) 59 % of control.
`CN(C)C1C(=O)C(C(=O)NP(=O)(NCCCO)N(CCCl)CCCl)=C(O)C2(O)C(=O)C3=C(O)c4c(O)cccc4C(C)(O)C3CC12` (stereo not given): the T/C was -100 % of control under setting [7], -98 % of control under setting [8] and -100 % of control under setting [9].
Consider `O=C[C@@H](CO)O[C@H](C=O)n1cnc2c(=O)[nH]cnc21`, for which the T/C by setting is: under setting [3], 41 % of control; under setting [1], 39 % of control and 63 % of control; under setting [8], 47 % of control.
Turning to `CCCCCCCCCCCCCCCCCC(=O)Nc1ccn(C2OC(CO)C(O)C2O)c(=O)n1` (stereo not given), the T/C runs as follows: under setting [9], 11 % of control and 15 % of control and 24 % of control; under setting [10], 3 % of control and 8 % of control.
Consider `C(C#CCN1CCOCC1)#CCN1CCOCC1`, for which the T/C was 72 % of control (dose: 300.0 mg/kg/injection, schedule: Q04DX003 (sc), vehicle: Klucel (hydroxypropylcellulose) (HPC)); 84 % of control under setting [11]; 61 % of control (dose: 1200.0 mg/kg/injection, schedule: Q04DX003 (sc), vehicle: Klucel (hydroxypropylcellulose) (HPC)).
Consider `CCCCCC(=O)O[C@]1(C(C)=O)CC[C@H]2[C@@H]3CCC4=CC(=O)CC[C@]4(C)[C@H]3CC[C@@]21C`, for which the T/C runs as follows: under setting [11], 98 % of control; (dose: 2400.0 mg/kg/injection, schedule: Q04DX003 (sc), vehicle: Klucel (hydroxypropylcellulose) (HPC)) 85 % of control.
`ClC(Cl)(Cl)C1=NCc2nnn(Cc3ccccc3)c2N1`: the T/C is 92 % of control under setting [8], 61 % of control under setting [9], 66 % of control under setting [10] and 101 % of control under setting [12].
`CCNC(=O)OCc1c(COC(=O)NCC)c(-c2ccc(Cl)c(Cl)c2)n2c1CCC2`: the T/C was 46 % of control (dose: 12.5 mg/kg/injection, schedule: Q01DX010 (sc), vehicle: saline with Tween-80); 10 % of control (dose: 25.0 mg/kg/injection, schedule: Q01DX010 (sc), vehicle: saline with Tween-80); 3 % of control and 8 % of control under setting [13]; 4 % of control under setting [14].
With `Cc1oc2c(C)c3oc(=O)cc(C)c3cc2c1CCl`, the T/C runs as follows: under setting [8], 109 % of control; under setting [9], 75 % of control; under setting [10], 83 % of control; under setting [12], 54 % of control.
`OCCOCC(F)(F)F`: the T/C is, setting by setting: under setting [6], 82 % of control; (dose: 1200.0 mg/kg/injection, schedule: Q04DX003 (sc), vehicle: saline) 86 % of control; (dose: 2400.0 mg/kg/injection, schedule: Q04DX003 (sc), vehicle: saline) 49 % of control.
Turning to `CCOC(=O)C(N)C[S][Sn]([CH3])([CH3])[Cl]` (stereo not given), the T/C (dose: 75.0 mg/kg/injection, schedule: Q04DX003 (sc), vehicle: saline) was 155 % of control.
Take `O=[N+]([O-])O.O=[N+]([O-])O.[NH-]C1CCCCC1[NH-].[Pt+2]` (stereo not given): the T/C (dose: 1.0 mg/kg/injection, schedule: Q01DX010 (sc), vehicle: dextrose) is 62 % of control and the T/C (dose: 2.0 mg/kg/injection, schedule: Q01DX010 (sc), vehicle: dextrose) is 27 % of control.
For `CCCCOC(=O)/C=C(\Br)C(=O)OCCCC`, the T/C is 102 % of control under setting [13]; 68 % of control under setting [14]; 191 % of control (dose: 200.0 mg/kg/injection, schedule: Q01DX010 (sc), vehicle: saline with Tween-80); 205 % of control (dose: 400.0 mg/kg/injection, schedule: Q01DX010 (sc), vehicle: saline with Tween-80).
In the case of `C=CS(=O)(=O)c1ccccc1`, the T/C runs as follows: under setting [4], 91 % of control; under setting [5], 81 % of control.
Turning to `NC1(C(=O)O)CCCC1`, the T/C was 103 % of control (dose: 12.5 mg/kg/injection, schedule: Q01DX010 (sc), vehicle: saline); 25 % of control and 41 % of control under setting [4]; 7 % of control and 8 % of control under setting [5].
On to `CC1(C)OC2C(COC(=O)c3ccc([N+](=O)[O-])cc3)OC(NC(=O)N(CCCl)N=O)C2O1` (stereo not given), for which the T/C is 69 % of control under setting [7] and 9 % of control under setting [10].
Regarding `O=S(=O)(N=N/C=C1\C=CC=CN1O)c1cccs1`, the T/C runs as follows: (dose: 75.0 mg/kg/injection, schedule: Q04DX003 (sc), vehicle: saline with Tween-80) 99 % of control; under setting [7], 77 % of control; under setting [8], 72 % of control.
